Test [1] addresses T1, recombinant human FLAP protein (Homo sapiens, UniProt P20292).
T1 construct: made in house; host or cells: Sf9 insect cells (100,000×g membrane pellet used)
T1 sequence (P20292 1-161): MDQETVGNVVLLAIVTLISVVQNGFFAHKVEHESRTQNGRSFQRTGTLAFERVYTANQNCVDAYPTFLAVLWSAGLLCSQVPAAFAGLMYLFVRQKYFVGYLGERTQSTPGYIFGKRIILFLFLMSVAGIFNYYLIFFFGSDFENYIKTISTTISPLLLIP
The experiment in a line: FLAP binding assay (SPA, displacement of [125I]L-691,831). Particulars: membranes of sf9 cells expressing recombinant human FLAP; [125I]L-691,831 probe; read-out: FLAP binding IC50. The procedure, abridged:
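Membranes from sf9 cells expressing human FLAP in pH 7.5 Tris buffer (MgCl2, EDTA, PMSF). Non-specific binding defined with 10 μM cold L-691,831.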
In general terms: In a radioligand displacement assay an active substance lowers the binding of a labelled ligand.

Test [2] deals with synthesis of LTB4 in human whole blood. Briefly: Human whole blood assay (inhibition of LTB4 synthesis, calcimycin stimulated). The class given is cell-based. Particulars: heparinized human whole blood, calcimycin 20 μM, plasma LTB4. The essentials:
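Steps: compound plus heparinized human whole blood, 15 min at 37° C; add calcimycin to 20 μM final; incubate another 30 min at 37° C; centrifuge at low speed and collect plasma; measure LTB4 with a homogeneous time-resolved fluorescence immunoassay.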

Usually IC50 stands for the concentration needed to halve the response being measured.

For the molecule `CC(C)C(C)(c1ccc(-c2cnc(N)nc2)cc1)c1noc(C2(C)CCCC2)n1` (centres unmarked) [Example 117, 5-(4-{3-methyl-2-[5-(1-methylcyclopentyl)-1,2,4-oxadiazol-3-yl]butan-2-yl}phenyl)pyrimidin-2-amine], the results for the IC50 in test [1] and in test [2] were 31 nM and 1200 nM, respectively.
The corresponding values for `CC(C)C(C)(c1ccc(-c2cnc(N)nc2)cc1)c1noc(C2(C)CC2)n1` (centres unmarked) [Example 118, 5-(4-{3-methyl-2-[5-(1-methylcyclopropyl)-1,2,4-oxadiazol-3-yl]butan-2-yl}phenyl)pyrimidin-2-amine] are 9.9 nM and 820 nM.
Turning to `CC(C)C(C)(c1ccc(-c2cnc(N)nc2)cc1)c1noc(C2CCCCC2)n1` (centres unmarked) [Example 119, 5-{4-[2-(5-cyclohexyl-1,2,4-oxadiazol-3-yl)-3-methylbutan-2-yl]phenyl}pyrimidin-2-amine], the IC50 in test [1] came out at 9.2 nM; in test [2] it was 900 nM.
The corresponding values for `CC(C)C(C)(c1ccc(-c2cnc(N)nc2)cc1)c1noc(C2(C)CCCCC2)n1` (centres unmarked) [Example 120, 5-(4-{3-methyl-2-[5-(1-methylcyclohexyl)-1,2,4-oxadiazol-3-yl]butan-2-yl}phenyl)pyrimidin-2-amine] are 40 nM and 2100 nM.
For `Cn1cc(-c2nc([C@@](C)(c3ccc(-c4cnc(N)nc4)cc3)C3CCC3)no2)cn1` [Example 121, 5-(4-{(1R)-1-cyclobutyl-1-[5-(1-methyl-1H-pyrazol-4-yl)-1,2,4-oxadiazol-3-yl]ethyl}phenyl)pyrimidin-2-amine], in that order: 2.6 nM and 91 nM.
The corresponding values for `Cn1cc(-c2nc([C@](C)(c3ccc(-c4cnc(N)nc4)cc3)C3CCC3)no2)cn1` [Example 122, 5-(4-{(1S)-1-cyclobutyl-1-[5-(1-methyl-1H-pyrazol-4-yl)-1,2,4-oxadiazol-3-yl]ethyl}phenyl)pyrimidin-2-amine] are 140 nM and 3200 nM.
In the case of `COCCNc1cnc(-c2nc([C@@](C)(c3ccc(-c4cnc(N)nc4)cc3)C(C)C)no2)cn1` [Example 123, 5-{4-[(2R)-2-(5-{5-[(2-methoxyethyl)amino]pyrazin-2-yl}-1,2,4-oxadiazol-3-yl)-3-methylbutan-2-yl]phenyl}pyrimidin-2-amine], the IC50 came out at 1.7 nM in test [1] and 42 nM in test [2].
For the molecule `COCCNc1cnc(-c2nc([C@](C)(c3ccc(-c4cnc(N)nc4)cc3)C(C)C)no2)cn1` [Example 124, 5-{4-[(2S)-2-(5-{5-[(2-methoxyethyl)amino]pyrazin-2-yl} 1,2,4-oxadiazol-3-yl)-3-methylbutan-2-yl]phenyl}pyrimidin-2-amine], the IC50 in test [1] was 2.3 nM; in test [2] it was 31 nM.
The corresponding values for `CC(C)C(C)(c1ccc(-c2cnc(N)nc2)cc1)c1noc(-c2ccc(C(N)=O)nc2)n1` (centres unmarked) [Example 125, 5-(3-{2-[4-(2-aminopyrimidin-5-yl)phenyl]-3-methylbutan-2-yl}-1,2,4-oxadiazol-5-yl)pyridine-2-carboxamide] are 1.5 nM and 290 nM.
The corresponding values for `CC(C)C(C)(c1ccc(-c2cnc(N)nc2)cc1)c1noc(-c2c[nH]cn2)n1` (centres unmarked) [Example 126, 5-(4-{2-[5-(1H-imidazol-4-yl)-1,2,4-oxadiazol-3-yl]-3-methylbutan-2-yl}phenyl)pyrimidin-2-amine] are 4.6 nM and 260 nM.
`CC(C)C(C)(c1ccc(-c2cnc(N)nc2)cc1)c1noc(-c2cncc3ccccc23)n1` (centres unmarked) [Example 127, 5-(4-{2-[5-(isoquinolin-4-yl)-1,2,4-oxadiazol-3-yl]-3-methylbutan-2-yl}phenyl)pyrimidin-2-amine]: the IC50 in test [1] came to 2.9 nM; in test [2] it was 650 nM.
For `CC(C)C(C)(c1ccc(-c2cnc(N)nc2)cc1)c1noc(-c2ccc(C#N)nc2)n1` (centres unmarked) [Example 128, 5-(3-{2-[4-(2-aminopyrimidin-5-yl)phenyl]-3-methylbutan-2-yl}-1,2,4-oxadiazol-5-yl)pyridine-2-carbonitrile], in that order: 1.6 nM and 240 nM.
Take `CC(C)C(C)(c1ccc(-c2cnc(N)nc2)cc1)c1noc(-c2cncnc2)n1` (centres unmarked) [Example 129, 5-(4-{3-methyl-2-[5-(pyrimidin-5-yl)-1,2,4-oxadiazol-3-yl]butan-2-yl}phenyl)pyrimidin-2-amine]: the IC50 in test [1] was 2 nM; in test [2], 180 nM.
The corresponding values for `CC(C)C(C)(c1ccc(-c2cnc(N)nc2)cc1)c1noc(-c2cncs2)n1` (centres unmarked) [Example 130, 5-(4-{3-methyl-2-[5-(1,3-thiazol-5-yl)-1,2,4-oxadiazol-3-yl]butan-2-yl}phenyl)pyrimidin-2-amine] are 1.4 nM and 180 nM.
With `CC(C)C(C)(c1ccc(-c2cnc(N)nc2)cc1)c1noc(-c2cnco2)n1` (centres unmarked) [Example 132, 5-(4-{3-methyl-2-[5-(1,3-oxazol-5-yl)-1,2,4-oxadiazol-3-yl]butan-2-yl}phenyl)pyrimidin-2-amine], the IC50 is 2.8 nM in test [1] and 330 nM in test [2].
On to `Cc1n[nH]c(C)c1-c1nc(C(C)(c2ccc(-c3cnc(N)nc3)cc2)C(C)C)no1` (centres unmarked) [Example 133, 5-(4-{2-[5-(3,5-dimethyl-1H-pyrazol-4-yl)-1,2,4-oxadiazol-3-yl]-3-methylbutan-2-yl}phenyl)pyrimidin-2-amine], for which the IC50 in test [1] is 1.6 nM; in test [2], 190 nM.
For `CCNc1nc(C(C)(c2ccc(-c3cnc(N)nc3)cc2)C(C)C)no1` (centres unmarked) [Example 134, 5-(4-{2-[5-(ethylamino)-1,2,4-oxadiazol-3-yl]-3-methylbutan-2-yl}phenyl)pyrimidin-2-amine], in that order: 8.3 nM and 190 nM.
For `CC(C)C(C)(c1ccc(-c2cnc(N)nc2)cc1)c1noc(-c2ccc(N3CCOCC3)nc2)n1` (centres unmarked) [Example 135, 5-[4-(3-methyl-2-{5-[6-(morpholin-4-yl)pyridin-3-yl]-1,2,4-oxadiazol-3-yl}butan-2-yl)phenyl]pyrimidin-2-amine], in that order: 1.4 nM and 250 nM.
Take `CC(C)C(C)(c1ccc(-c2cnc(N)nc2)cc1)c1noc(-c2ccc(C(F)(F)F)nc2)n1` (centres unmarked) [Example 136, 5-[4-(3-methyl-2-{5-[6-(trifluoromethyl)pyridin-3-yl]-1,2,4-oxadiazol-3-yl}butan-2-yl)phenyl]pyrimidin-2-amine]: the IC50 in test [1] stood at 5.4 nM; in test [2], 320 nM.
For `CC(C)C(C)(c1ccc(-c2cnc(N)nc2)cc1)c1noc(-c2cnccn2)n1` (centres unmarked) [Example 137, 5-(4-{3-methyl-2-[5-(pyrazin-2-yl)-1,2,4-oxadiazol-3-yl]butan-2-yl}phenyl)pyrimidin-2-amine], in that order: 2.8 nM and 77 nM.
The corresponding values for `CC(C)C(C)(c1ccc(-c2cnc(N)nc2)cc1)c1noc(C2CCOCC2)n1` (centres unmarked) [Example 138, 5-(4-{3-methyl-2-[5-(tetrahydro-2H-pyran-4-yl)-1,2,4-oxadiazol-3-yl]butan-2-yl}phenyl)pyrimidin-2-amine] are 15 nM and 760 nM.
For the molecule `Cc1ncoc1-c1nc(C(C)(c2ccc(-c3cnc(N)nc3)cc2)C(C)C)no1` (centres unmarked) [Example 140, 5-(4-{3-methyl-2-[5-(4-methyl-1,3-oxazol-5-yl)-1,2,4-oxadiazol-3-yl]butan-2-yl}phenyl)pyrimidin-2-amine], the values for the IC50 in test [1] and in test [2] were 4.1 nM and 710 nM, respectively.
For `Cc1ncsc1-c1nc(C(C)(c2ccc(-c3cnc(N)nc3)cc2)C(C)C)no1` (centres unmarked) [Example 141, 5-(4-{3-methyl-2-[5-(4-methyl-1,3-thiazol-5-yl)-1,2,4-oxadiazol-3-yl]butan-2-yl}phenyl)pyrimidin-2-amine], in that order: 1.5 nM and 530 nM.
The corresponding values for `CNC(=O)Cn1cc(-c2nc(C(C)(c3ccc(-c4cnc(N)nc4)cc3)C(C)C)no2)cn1` (centres unmarked) [Example 142, 2-[4-(3-{2-[4-(2-aminopyrimidin-5-yl)phenyl]-3-methylbutan-2-yl}-1,2,4-oxadiazol-5-yl)-1H-pyrazol-1-yl]-N-methylacetamide] are 1.1 nM and 59 nM.
`CCC(C)(c1ccc(-c2cnc(N)nc2)cc1)c1noc(-c2ccc(C)nc2)n1` (centres unmarked) [Example 143, 5-(4-{2-[5-(6-methylpyridin-3-yl)-1,2,4-oxadiazol-3-yl]butan-2-yl}phenyl)pyrimidin-2-amine]: the IC50 was 4.1 nM in test [1] and 360 nM in test [2].
For `CC(C)C(C)(c1ccc(-c2cnc(N)nc2)cc1)c1noc(-c2cnn(CCN3CCOCC3)c2)n1` (centres unmarked) [Example 144, 5-{4-[3-methyl-2-(5-{1-[2-(morpholin-4-yl)ethyl]-1H-pyrazol-4-yl}-1,2,4-oxadiazol-3-yl)butan-2-yl]phenyl}pyrimidin-2-amine], in that order: 3.1 nM and 26 nM.
Take `CC(C)C(C)(c1ccc(-c2cnc(N)nc2)cc1)c1noc(C2(C(=O)O)CCCCC2)n1` (centres unmarked) [Example 145, 1-(3-{2-[4-(2-aminopyrimidin-5-yl)phenyl]-3-methylbutan-2-yl}-1,2,4-oxadiazol-5-yl)cyclohexanecarboxylic acid]: the IC50 in test [1] came to 17 nM; in test [2], 2500 nM.
For `CC(C)C(C)(c1ccc(-c2cnc(N)nc2)cc1)c1noc(-c2cn[nH]c2)n1` (centres unmarked) [Example 146, 5-(4-{3-methyl-2-[5-(1H-pyrazol-4-yl)-1,2,4-oxadiazol-3-yl]butan-2-yl}phenyl)pyrimidin-2-amine], in that order: 1.3 nM and 46 nM.

Values taken from patent US8658661B2, “Oxadiazole inhibitors of leukotriene production” (Boehringer Ingelheim International GmbH, priority 2010, dated 2014).
